For one experiment, the target named is T1, MAT2A homodimer (Homo sapiens, UniProt P31153).
T1 construct: inferred from Ni sepharose purification with imidazole elution; made in house; host or cells: Sf9 insect cells, baculovirus (Bac to Bac, pFASTBAC1)
As to the kind of experiment: MAT2A inhibition (biochemical, liberated phosphate, PiColorLock Gold). The conditions noted are these: recombinant MAT2A homodimer; IC50 bin with Max Inh.; read-out: Enzyme Inhibition Bin. The procedure, abridged: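 Enzyme at 4 μg/mL and compound equilibrated 60 min at 25 °C, then 60 min reaction after adding substrate mix (500 μM ATP, 400 μM methionine). Released phosphate quantified by colorimetric kit against a phosphate standard curve to give IC50. Secondary format used 1 μg/mL enzyme with 5 h incubation.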

A further experiment concerns HCT116 MTAP−/−. The experiment in a line: Inhibition of cellular proliferation, 4 days, Cell Titer Glo, HCT116 MTAP−/−. It is filed as cell-based. The conditions noted are these: Homo sapiens, HCT-116, 96 h, IC50 bin with Max Inh., read-out: 4 Day Relative Growth Inhibition (MTAP −/−). The procedure, abridged:
(§1)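 IC50 derived from blank-corrected ATP luminescence (Cell Titer Glo) expressed relative to within-plate 0.2% DMSO wells. Compound, as a 10-point 3-fold series, was added 24 h after seeding the MTAP+/+ or MTAP−/− HCT116 cells and incubated 4 days at 37° C./5% CO2.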
(ATP-based viability assays read luminescence as a measure of living cells.)

Another experiment has as its system HCT116 MTAP+/+. The experiment in a line: Inhibition of cellular proliferation, 4 days, Cell Titer Glo, HCT116 MTAP+/+. Type of experiment: cell-based. The conditions noted are these: Homo sapiens, HCT-116, 96 h, IC50 bin with Max Inh., read-out: 4 Day Relative Growth Inhibition (MTAP +/+). The procedure, abridged:
as §1

Experiment [1] concerns SAM in HCT116 human colon carcinoma cell line with MTAP gene deleted (MTAP −/−). As to the kind of experiment: Cellular assay of target engagement (SAM), LC-MS/MS, 72 hrs. It is filed as cell-based. The conditions noted are these: HCT-116, IC50 bin with Max Inh., read-out: Cell 72 h SAM Inhibition (MTAP −/−). The procedure, abridged: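 SAM levels were quantified by LC-MS/MS (m/z 399.2→250.1, d3-SAM internal standard) from cold methanol/acetic acid extracts, yielding IC50. Compound was applied as a 10-point 3-fold series for 72 hrs to MTAP −/− HCT116 cells seeded 24 hours before.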

pIC50: −log10 of the molar value.

T1 sequence (P31153 whole entry): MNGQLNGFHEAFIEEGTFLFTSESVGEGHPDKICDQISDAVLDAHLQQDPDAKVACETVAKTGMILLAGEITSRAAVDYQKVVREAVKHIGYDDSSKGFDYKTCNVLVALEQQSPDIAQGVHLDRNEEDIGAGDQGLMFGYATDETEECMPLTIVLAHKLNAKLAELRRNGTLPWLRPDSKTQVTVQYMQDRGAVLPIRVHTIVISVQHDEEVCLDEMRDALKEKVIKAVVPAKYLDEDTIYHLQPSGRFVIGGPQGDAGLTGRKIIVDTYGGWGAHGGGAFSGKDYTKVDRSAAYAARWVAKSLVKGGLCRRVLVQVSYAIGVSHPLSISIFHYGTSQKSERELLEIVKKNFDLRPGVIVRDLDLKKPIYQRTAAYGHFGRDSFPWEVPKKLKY

Regarding `Cn1cc2cc(-n3nc4[nH]c(=O)n(CC5CC5)c4c(-c4ccc(C5CC5)cc4)c3=O)ccc2n1` [Example 204, 5-(cyclopropylmethyl)-4-(4-cyclopropylphenyl)-2-(2-methyl-2H-indazol-5-yl)-2,7-dihydro-3H-imidazo[4,5-c]pyridazine-3,6(5H)-dione], the pIC50 at MAT2A homodimer is greater than 7.00; in the experiment with HCT116 MTAP−/− it was greater than 7.00; in the experiment on HCT116 MTAP+/+, less than 6.00; in experiment [1] it was greater than 7.00.
In the case of `Cc1ccc(-c2c(=O)n(-c3ccc4nn(C)cc4c3)nc3c(C#N)cn(CCC(F)(F)F)c23)cn1` [Example 108, 2-(2-methyl-2H-indazol-5-yl)-4-(6-methylpyridin-3-yl)-3-oxo-5-(3,3,3-trifluoropropyl)-3,5-dihydro-2H-pyrrolo[3,2-c]pyridazine-7-carbonitrile], the pIC50 at MAT2A homodimer is 6.00 to 7.00; with HCT116 MTAP−/− it was less than 6.00; with HCT116 MTAP+/+, 6.00 to 7.00; in experiment [1] it was 6.00 to 7.00.
In the case of `Cn1cc2cc(-n3nc4ccn(CC5CC5)c4c(-c4ccc(C(F)(F)F)nc4)c3=O)ccc2n1` [Example 118, 5-(cyclopropylmethyl)-2-(2-methyl-2H-indazol-5-yl)-4-(6-(trifluoromethyl)pyridin-3-yl)-2,5-dihydro-3H-pyrrolo[3,2-c]pyridazin-3-one], the pIC50 at MAT2A homodimer was greater than 7.00; in the experiment with HCT116 MTAP−/−, greater than 7.00; with HCT116 MTAP+/+, less than 6.00; in experiment [1], greater than 7.00.
For the compound `Cn1cc2cc(-n3nc4nnn(CC5CC5)c4c(-c4ccc(OC(F)F)cc4)c3=O)ccc2n1` [Example 208, 1-(cyclopropylmethyl)-7-(4-(difluoromethoxy)phenyl)-5-(2-methyl-2H-indazol-5-yl)-1,5-dihydro-6H-[1,2,3]triazolo[4,5-c]pyridazin-6-one], the pIC50 at MAT2A homodimer was greater than 7.00; in the experiment on HCT116 MTAP−/− it was 6.00 to 7.00; in the experiment on HCT116 MTAP+/+, 6.00 to 7.00; in experiment [1] it was greater than 7.00.
Consider `Cc1ccc(-c2c(=O)n(-c3ccc4nc(C)n(C)c4c3)nc3ccn(CC4CC4)c23)cn1` [Example 141, 5-(cyclopropylmethyl)-2-(1,2-dimethyl-1H-benzo[d]imidazol-6-yl)-4-(6-methylpyridin-3-yl)-2,5-dihydro-3H-pyrrolo[3,2-c]pyridazin-3-one], for which the pIC50 at MAT2A homodimer is greater than 7.00; in the experiment on HCT116 MTAP−/−, greater than 7.00; in the experiment on HCT116 MTAP+/+, 6.00 to 7.00; in experiment [1] it was greater than 7.00.
With `Cn1cc2cc(-n3nc4[nH]c(=O)n(CC5CC5)c4c(-c4ccc(C5CC5)nc4)c3=O)ccc2n1` [Example 203, 5-(cyclopropylmethyl)-4-(6-cyclopropylpyridin-3-yl)-2-(2-methyl-2H-indazol-5-yl)-2,7-dihydro-3H-imidazo[4,5-c]pyridazine-3,6(5H)-dione], the pIC50 at MAT2A homodimer was greater than 7.00; in the experiment with HCT116 MTAP−/−, greater than 7.00; in the experiment on HCT116 MTAP+/+, 6.00 to 7.00; in experiment [1], greater than 7.00.
Regarding `Cc1nc2ccc(-n3nc4c(C#N)cn(CC5CC5)c4c(-c4ccc(C(F)F)nc4)c3=O)cc2n1C` [Example 147, 5-(cyclopropylmethyl)-4-(6-(difluoromethyl)pyridin-3-yl)-2-(1,2-dimethyl-1H-benzo[d]imidazol-6-yl)-3-oxo-3,5-dihydro-2H-pyrrolo[3,2-c]pyridazine-7-carbonitrile], the pIC50 at MAT2A homodimer is greater than 7.00; in the experiment with HCT116 MTAP−/−, greater than 7.00; in the experiment with HCT116 MTAP+/+, 6.00 to 7.00; in experiment [1], greater than 7.00.
Consider `Cc1ccc(-c2c(=O)n(-c3ccc4nn(C)cc4c3)nc3c2n(CC2CC2)c(=O)n3C)cn1` [Example 202, 5-(cyclopropylmethyl)-7-methyl-2-(2-methyl-2H-indazol-5-yl)-4-(6-methylpyridin-3-yl)-2,7-dihydro-3H-imidazo[4,5-c]pyridazine-3,6(5H)-dione], for which the pIC50 on MAT2A homodimer was greater than 7.00; in the experiment with HCT116 MTAP−/− it was 6.00 to 7.00; in the experiment with HCT116 MTAP+/+, 6.00 to 7.00; in experiment [1], 6.00 to 7.00.
As for `CC(C)c1ccc(-c2c(=O)n(-c3ccc4nn(C)cc4c3)nc3c(C#N)cn(CC4CC4)c23)cn1` [Example 128, 5-(cyclopropylmethyl)-4-(6-isopropylpyridin-3-yl)-2-(2-methyl-2H-indazol-5-yl)-3-oxo-3,5-dihydro-2H-pyrrolo[3,2-c]pyridazine-7-carbonitrile], the pIC50 on MAT2A homodimer was greater than 7.00; with HCT116 MTAP−/− it was 6.00 to 7.00; with HCT116 MTAP+/+, less than 6.00; in experiment [1] it was greater than 7.00.
On to `[2H]C([2H])([2H])Oc1ccc(-c2c(=O)n(-c3ccc4nn(C)cc4c3)nc3c(C(N)=O)cn(CC4CC4)c23)cc1` [Example 173, 5-(cyclopropylmethyl)-4-(4-(methoxy-d3)phenyl)-2-(2-methyl-2H-indazol-5-yl)-3-oxo-3,5-dihydro-2H-pyrrolo[3,2-c]pyridazine-7-carboxamide], for which the pIC50 at MAT2A homodimer is greater than 7.00; in the experiment with HCT116 MTAP−/−, greater than 7.00; in the experiment with HCT116 MTAP+/+, less than 6.00; in experiment [1], greater than 7.00.
In the case of `[2H]C([2H])([2H])Oc1ccc(-c2c(=O)n(-c3ccc4nn(C)cc4c3)nc3cnn(CC4CC4)c23)cc1` [Example 220, 1-(cyclopropylmethyl)-7-(4-(methoxy-d3)phenyl)-5-(2-methyl-2H-indazol-5-yl)-1,5-dihydro-6H-pyrazolo[4,3-c]pyridazin-6-one], the pIC50 is greater than 7.00 at MAT2A homodimer, greater than 7.00 in the experiment with HCT116 MTAP−/−, 6.00 to 7.00 in the experiment with HCT116 MTAP+/+ and greater than 7.00 in experiment [1].
As for `Cn1cc2cc(-n3nc4ccn(CC5CC5)c4c(-c4ccc(CO)nc4)c3=O)ccc2n1` [Example 157, 5-(cyclopropylmethyl)-4-(6-(hydroxymethyl)pyridin-3-yl)-2-(2-methyl-2H-indazol-5-yl)-2,5-dihydro-3H-pyrrolo[3,2-c]pyridazin-3-one], the pIC50 was greater than 7.00 on MAT2A homodimer, greater than 7.00 in the experiment on HCT116 MTAP−/−, 6.00 to 7.00 in the experiment with HCT116 MTAP+/+ and greater than 7.00 in experiment [1].
As to `Cn1cc2cc(-n3nc4[nH]c(=O)n(CC5CC5)c4c(-c4ccc(Cl)cc4)c3=O)ccc2n1` [Example 205, 4-(4-chlorophenyl)-5-(cyclopropylmethyl)-2-(2-methyl-2H-indazol-5-yl)-2,7-dihydro-3H-imidazo[4,5-c]pyridazine-3,6(5H)-dione], the pIC50 was greater than 7.00 on MAT2A homodimer, 6.00 to 7.00 in the experiment on HCT116 MTAP−/−, less than 6.00 with HCT116 MTAP+/+ and greater than 7.00 in experiment [1].
As for `[2H]C([2H])([2H])Oc1ccc(-c2c(=O)n(-c3ccc4nn(C)cc4c3)nc3c(C)nn(CC4CC4)c23)cc1` [Example 216, 1-(cyclopropylmethyl)-7-(4-(methoxy-d3)phenyl)-3-methyl-5-(2-methyl-2H-indazol-5-yl)-1,5-dihydro-6H-pyrazolo[4,3-c]pyridazin-6-one], the pIC50 at MAT2A homodimer is greater than 7.00; with HCT116 MTAP−/−, greater than 7.00; in the experiment with HCT116 MTAP+/+, 6.00 to 7.00; in experiment [1], greater than 7.00.
Regarding `Cn1cc2cc(-n3nc4ccn(CC5CC5)c4c(-c4ccc(C(N)=O)nc4)c3=O)ccc2n1` [Example 155, 5-(5-(cyclopropylmethyl)-2-(2-methyl-2H-indazol-5-yl)-3-oxo-3,5-dihydro-2H-pyrrolo[3,2-c]pyridazin-4-yl)picolinamide], the pIC50 was greater than 7.00 on MAT2A homodimer, 6.00 to 7.00 in the experiment on HCT116 MTAP−/−, less than 6.00 in the experiment with HCT116 MTAP+/+ and 6.00 to 7.00 in experiment [1].

The values above are taken from patent US20220169654A1, “New Organic Compounds” (Servier Pharmaceuticals LLC, priority 2020, published 2022).
